According to patent US20110118238A1, “2-ANILINOPURIN-8-ONES AS INHIBITORS OF TTK/MPS1 FOR THE TREATMENT OF PROLIFERATIVE DISORDERS” (ASTRAZENECA AB, priority 2007, published 2011):

Key:
[1] = biological target: T1, N-terminal GST tagged full length human TTK kinase (Homo sapiens, UniProt P33981); assay: In Vitro TTK Kinase Assay 2 (Caliper LabChip LC3000); type: biochemical; conditions: recombinant TTK, 12 μM ATP, read-out: EAA2: Enzyme Assay Activity (In Vitro TTK kinase assay 2)
T1 construct: N-terminal GST tagged full length human TTK kinase; GST (N); made in house; host or cells: insect cells
T1 sequence (P33981 1-857): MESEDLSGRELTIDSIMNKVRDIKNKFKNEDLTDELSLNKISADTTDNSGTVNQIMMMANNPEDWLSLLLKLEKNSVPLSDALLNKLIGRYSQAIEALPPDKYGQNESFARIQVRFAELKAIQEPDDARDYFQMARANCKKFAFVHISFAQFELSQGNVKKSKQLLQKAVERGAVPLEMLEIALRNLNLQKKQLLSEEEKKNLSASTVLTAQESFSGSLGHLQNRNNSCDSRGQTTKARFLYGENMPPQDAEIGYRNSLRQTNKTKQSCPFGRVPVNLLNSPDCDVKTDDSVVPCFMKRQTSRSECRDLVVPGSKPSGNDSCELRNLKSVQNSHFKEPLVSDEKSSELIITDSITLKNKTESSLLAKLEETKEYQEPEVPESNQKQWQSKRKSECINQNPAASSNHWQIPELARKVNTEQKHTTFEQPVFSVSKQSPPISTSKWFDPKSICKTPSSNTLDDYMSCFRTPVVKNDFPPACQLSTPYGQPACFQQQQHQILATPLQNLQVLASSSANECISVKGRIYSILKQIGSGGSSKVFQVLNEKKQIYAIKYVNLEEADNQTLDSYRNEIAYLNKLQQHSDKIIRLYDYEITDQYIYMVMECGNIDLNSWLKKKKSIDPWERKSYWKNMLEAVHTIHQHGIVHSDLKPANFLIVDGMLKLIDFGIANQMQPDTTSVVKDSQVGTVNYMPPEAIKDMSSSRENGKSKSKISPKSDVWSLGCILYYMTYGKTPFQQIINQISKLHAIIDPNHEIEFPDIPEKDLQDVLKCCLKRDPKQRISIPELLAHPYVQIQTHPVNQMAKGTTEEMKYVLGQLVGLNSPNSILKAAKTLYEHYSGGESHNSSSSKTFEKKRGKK
Protocol: Each reaction was stopped by the addition of EDTA to a concentration of 40 mM in a solution which also comprised 0.1% coating reagent (Caliper LS), 100 mM HEPES pH 7.5, 0.015% v/v Brij™-35 and 5% DMSO. The stopped enzyme reactions were sipped through capillaries onto a Caliper chip where the peptide substrate and phosphorylated product were separated and detected via laser-induced fluorescence.

[2] = system: human colon tumour cell line HT29; assay: Spindle Checkpoint Abrogation Assay (phosphohistone H3 serine 10); type: cell-based; conditions: HT-29, HT29 cells, paclitaxol 7.8 nM, compound 5 h, histone H3 serine 10 positive cells, read-out: SCAA: Spindle checkpoint abrogation assay activity
Text: Chromosome condensation in mitosis is accompanied by phosphorylation of histone H3 on serine 10. Dephosphorylation begins in anaphase and ends at early telophase, thus histone H3 serine 10 phosphorylation acts as an excellent mitotic marker. Paclitaxol is a microtubule stabilising drug which perturbs microtubule dynamics, invokes the spindle checkpoint and arrests cells in mitosis. These cells are positive for histone H3 serine 10 phosphorylation. Inhibition of the spindle checkpoint overrides the mitotic block in the presence of paclitaxol and the histone H3 serine 10 endpoint is used as a marker to determine the ability of compounds of the present invention to exit mitotic arrest prematurely.
Cells of the human colon tumour cell line HT29 were seeded into 96 well black plates (Costar, Catalogue No 3904) in phenol red free Dulbecco's Modified Eagles Medium (DMEM) supplemented with 10% (v/v) FCS and 1% (v/v) L-Glutamine and incubated overnight at 37° C. Paclitaxol was added to the cells at a concentration of 7.8 nM and the cells incubated overnight prior to compound dosing. Test compounds were solubilised in DMSO, diluted to give a range of final assay concentrations, added to cells and incubated for 5 h at 37° C. […] The raw assay data were analysed by non-linear regression analysis and used to determine an IC50 value for each compound.

[3] = biological target: T1, N-terminal GST tagged full length human TTK kinase; assay: In Vitro TTK Kinase Assay 1 (AlphaScreen); type: biochemical; conditions: recombinant TTK, 10 μM ATP, read-out: EAA: Enzyme Assay Activity (In Vitro TTK kinase assay 1)
Protocol: Aliquots (2 μL) of each compound dilution were placed into wells of a Greiner 384-well low volume white polystyrene plate (Greiner Bio-one).
The resultant signals arising from laser light excitation at 680 nm were read using a Packard Envision instrument.

Row | Compound | IC50 [1] | IC50 [2] | IC50 [3]
1 | CN1CCN(S(=O)(=O)c2ccc(Nc3ncc4c(n3)n(C3CCCC3)c(=O)n4C)cc2)CC1 [Example 13, 9-Cyclopentyl-7-methyl-2-({4-[(4-methylpiperazin-1-yl)-sulfonyl]-phenyl}amino)-7,9-dihydro-8H-purin-8-one] | 0.626 µM | 3.7 µM | –
2 | Cn1c(=O)n(C2CCCC2)c2nc(Nc3ccc(S(C)(=O)=O)cc3F)ncc21 [Example 3, 9-Cyclopentyl-2-{[2-fluoro-4-(methylsulfonyl)phenyl]amino}-7-methyl-7,9-dihydro-8H-purin-8-one] | 0.131 µM | 2.3 µM | –
3 | COc1cc(C(=O)NC2CCN(C)CC2)ccc1Nc1ncc2c(n1)n(C1CCCC1)c(=O)n2C [Example 1] | 0.0646 µM | – | 0.622 µM
4 | CCOc1cc(OCCN(C)C)ccc1Nc1ncc2c(n1)n(C1CCCC1)c(=O)n2C [Example 25, 9-Cyclopentyl-2-({4-[2-(dimethylamino)ethoxy]-2-ethoxy-phenyl}-amino)-7-methyl-7,9-dihydro-8H-purin-8-one] | 0.0289 µM | – | 0.149 µM
5 | COc1cc(C(=O)NC2CCN(C)CC2)ccc1Nc1ncc2c(n1)n(C1CCCC1)c(=O)n2CC#N [Example 37, 4-{[7-(Cyanomethyl)-9-cyclopentyl-8-oxo-8,9-dihydro-7H-purin-2-yl]amino}-3-methoxy-N-(1-methylpiperidin-4-yl)-benzamide] | 0.0834 µM | – | 0.501 µM
6 | CCn1c(=O)n(C2CCCC2)c2nc(Nc3ccc(OC4CCN(C)CC4)cc3OC)ncc21 [Example 30, 9-Cyclopentyl-7-ethyl-2-({2-methoxy-4-[(1-methylpiperidin-4-yl)-oxy]phenyl}amino)-7,9-dihydro-8H-purin-8-one] | 0.0108 µM | – | 0.0913 µM
7 | Cn1c(=O)n(C2CCCC2)c2nc(Nc3ccc(N4CCS(=O)(=O)CC4)cc3)ncc21 [Example 12, 9-Cyclopentyl-2-{[4-(1,1-dioxidothiomorpholin-4-yl)-phenyl]-amino}-7-methyl-7,9-dihydro-8H-purin-8-one] | 0.0152 µM | – | 1.17 µM
8 | COc1cc(N2CCN(C)CC2)ccc1Nc1ncc2c(n1)n(C1CCCC1)c(=O)n2C [Example 4, 9-Cyclopentyl-2-{[2-methoxy-4-(4-methylpiperazin-1-yl)-phenyl]amino}-7-methyl-7,9-dihydro-8H-purin-8-one] | 0.0229 µM | – | 0.213 µM
9 | CCOc1cc(N2CCC(N(C)C)CC2)ccc1Nc1ncc2c(n1)n(C1CCCC1)c(=O)n2C [Example 23, 9-Cyclopentyl-2-({4-[4-(dimethylamino)piperidin-1-yl]-2-ethoxyphenyl}amino)-7-methyl-7,9-dihydro-8H-purin-8-one] | 0.0756 µM | – | 0.703 µM
10 | CNC(=O)c1ccc(Nc2ncc3c(n2)n(C2CCCC2)c(=O)n3C)c(OC)c1 [Example 9, 4-[(9-Cyclopentyl-7-methyl-8-oxo-8,9-dihydro-7H-purin-2-yl)amino]-3-methoxy-N-methylbenzamide] | 0.0322 µM | – | 0.328 µM
11 | Cc1cc(S(N)(=O)=O)ccc1Nc1ncc2c(n1)n(C1CCCC1)c(=O)n2C [Example 2, 4-[(9-Cyclopentyl-7-methyl-8-oxo-8,9-dihydro-7H-purin-2-yl)-amino]-3-methylbenzenesulfonamide] | 0.0166 µM | – | 1.28 µM
12 | CCn1c(=O)n(C2CCCC2)c2nc(Nc3ccc(S(C)(=O)=O)cc3OC)ncc21 [Example 32, 9-Cyclopentyl-7-ethyl-2-{[2-methoxy-4-(methylsulfonyl)-phenyl]-amino}-7,9-dihydro-8H-purin-8-one] | 0.0245 µM | – | 1.33 µM
13 | CCn1c(=O)n(C2CCCC2)c2nc(Nc3ccc(N4CCN(C)CC4)cc3OC)ncc21 [Example 29, 9-Cyclopentyl-7-ethyl-2-{[2-methoxy-4-(4-methylpiperazin-1-yl)-phenyl]amino}-7,9-dihydro-8H-purin-8-one] | 0.0538 µM | – | 0.22 µM
14 | CN1CCN(c2ccc(Nc3ncc4c(n3)n(C3CCCC3)c(=O)n4C)c(Cl)c2)CC1 [Example 18, 2-{[2-Chloro-4-(4-methylpiperazin-1-yl)phenyl]amino}-9-cyclopentyl-7-methyl-7,9-dihydro-8H-purin-8-one] | 0.0148 µM | – | 0.249 µM
15 | 4-[(9-Cyclopentyl-7-ethyl-8-oxo-8,9-dihydro-7H-purin-2-yl)-amino]-3-methoxy-N-(1-methylpiperidin-4-yl)benzamide [Example 33] | 0.0382 µM | – | 0.398 µM
16 | CCOc1cc(N2CCCN(C)CC2)ccc1Nc1ncc2c(n1)n(C1CCCC1)c(=O)n2C [Example 21, 9-Cyclopentyl-2-{[2-ethoxy-4-(4-methyl-1,4-diazepan-1-yl)-phenyl]amino}-7-methyl-7,9-dihydro-8H-purin-8-one] | 0.0473 µM | – | 0.384 µM
17 | N#CCn1c(=O)n(C2CCCC2)c2nc(Nc3ccc(S(N)(=O)=O)cc3)ncc21 [Example 38, 4-{[7-(Cyanomethyl)-9-cyclopentyl-8-oxo-8,9-dihydro-7H-purin-2-yl]amino}benzenesulfonamide] | 0.131 µM | – | 1.51 µM
18 | COc1cc(N2CCOCC2)ccc1Nc1ncc2c(n1)n(C1CCCC1)c(=O)n2C [Example 6, 9-Cyclopentyl-2-[(2-methoxy-4-morpholin-4-ylphenyl)-amino]-7-methyl-7,9-dihydro-8H-purin-8-one] | 0.078 µM | – | 0.396 µM
19 | COc1cc(N2CCN(C)CC2)ccc1Nc1ncc2c(n1)n(C1CCCC1)c(=O)n2CC#N [Example 36, (9-Cyclopentyl-2-{[2-methoxy-4-(4-methylpiperazin-1-yl)-phenyl]-amino}-8-oxo-8,9-dihydro-7H-purin-7-yl)acetonitrile] | 0.0216 µM | – | 0.217 µM
20 | COc1cc(C(=O)NC2CC3CCCC(C2)N3C)ccc1Nc1ncc2c(n1)n(C1CCCC1)c(=O)n2C (stereo not shown) [Example 14, 4-[(9-Cyclopentyl-7-methyl-8-oxo-8,9-dihydro-7H-purin-2-yl)-amino]-3-methoxy-N-(9-methyl-9-azabicyclo[3.3.1]non-3-yl)benzamide] | 0.0697 µM | – | 1.56 µM
